Test results reported in patent publication US4921847A, “Trihalo(amine)gold(III) anti-tumor complexes” (Engelhard Corporation, priority 1989, dated 1990).
Several values for one entry are separate records, joined by “and”; a condition that tells them apart may be missing. Equal entries are not always repeated.

Tests used:
S180 ascites = test: Anti-tumor evaluation against S180 ascites in mice (% increase in life span, survivors); assay type: in vivo, female CFW Swiss mice; settings: for Survivors: day of evaluation; for Anti-tumor activity (in words): 50% ILS criterion; for % ILS against criterion for anti-tumor activity: failed to meet the 50% ILS criterion
Description: The above prepared compounds were evaluated against S180 ascites in female CFW Swiss mice. The mice were weighed (average weight: 20 g), placed into cages (six mice to a cage) and on day zero the mice were inoculated with 0.2 ml of a freshly prepared saline suspension (0.15 M NaCl) containing 1×10^7 tumor cells/ml or a total of 2×10^6 cells. This inoculum was freshly prepared using "transfer" mice which had been injected with tumor cells the previous week; it was obtained via the following steps: (1) the removal of cells from the peritoneal cavity of the sacrificed transfer mouse, (2) alternate centrifugation and washing operations (2-3 times with cold saline) to remove blood and other components, and (3) dilution of the volume of the packed cell with saline (1:3). A final centrifugation was carried out at 1000 RPM over a two minute period. A cell count was made on a 2,000-fold dilution of this 1:3 suspension by means of a Coulter Counter. A final dilution to 1×10^7 cells/ml was made based on the average count.
On day 1, solutions of the test compounds were prepared and each mouse in a set of six were injected with the same test compound at the same dosage. The doses were based on the average weight of the animals (cage weight). Also, beginning on day 1 two controls were employed containing six mice per control:
(1) Normal Control: This consisted solely of the carrier or diluent used in combination with the test compound; and
(2) Positive Control: This consisted solely of the known anti-tumor agent cis-[Pt(NH3)2 Cl2 ] (Cisplatin) in saline (8 mg/kg) to test the response of the biological system.
The effectiveness of a test compound was measured in terms of the % increase in life span (%ILS) of the test mice relative to the Normal Control (Calculated from the day of tumor inoculation, i.e., day zero). To standardize the test data and permit intercomparisons, the day of evaluation was arbitrarily taken as that day corresponding to twice the mean life span (or average day of death) of the control. This established a practical upper limit of 100% on the %ILS attainable. For calculation purposes the survivors on the day of evaluation were considered to have died on that day. The %ILS was calculated as follows: [formula] ILS values in excess of 50% were interpreted as being indicative of anti-tumor activity, whereas, values in excess of 75% indicated excellent activity.
The products of Examples 1, 4, 10 and 11 were administered in a freshly prepared 1% sodium bicarbonate solution; the remaining test compounds were administered as slurries in 0.5% "Klucel" (hydroxypropylcellulose).

Sarcoma 180 tumors [1] = test: Therapeutic index (LD50/ED90), implanted Sarcoma 180 tumors; assay type: in vivo, Swiss white mice; parameters: ED90: unit not given here; settings: for Therapeutic Index: LD50/ED90; for Maximum % ILS (Dosage): S 180 ascites; for ED90: dose giving 50% increase in life span for 90% of the animals, determined graphically
Solubility = assay type: physicochemical
Sarcoma 180 tumors [2] = settings: comparison value; cited from earlier work

Compound | % ILS (S180 ascites; S 180 ascites, 10 mg/kg) [%] | Survivors (S180 ascites; S 180 ascites, 10 mg/kg) | % ILS (S180 ascites; S 180 ascites, 20 mg/kg) [%] | Survivors (S180 ascites; S 180 ascites, 20 mg/kg) | % ILS (S180 ascites; S 180 ascites, 40 mg/kg) [%] | Survivors (S180 ascites; S 180 ascites, 40 mg/kg) | % ILS (S180 ascites; S 180 ascites, 80 mg/kg) [%] | Survivors (S180 ascites; S 180 ascites, 80 mg/kg) | % ILS (S180 ascites; S 180 ascites, 160 mg/kg) [%] | Survivors (S180 ascites; S 180 ascites, 160 mg/kg) | Anti-tumor activity (in words) (S180 ascites; S 180 ascites) | Therapeutic Index (Sarcoma 180 tumors [1]) | Maximum % ILS (Dosage) (Sarcoma 180 tumors [1]; 40 mg/kg) [%] | ED90 (Sarcoma 180 tumors [1]) | % ILS (S180 ascites; S 180 ascites, 320 mg/kg) [%] | Survivors (S180 ascites; S 180 ascites, 320 mg/kg) | solubility in 1% sodium bicarbonate solution (Solubility) [mg/mL] | also measured
Cn1cc[n+]([Au-]([Cl])([Cl])[Cl])c1 [Example 2, Trichloro(N-Methylimidazole)Gold(III)] | 14 | 0 of 6 | 33 | 1 of 6 | 91 | 4 of 6 | 53 | 1 of 6 | -93 | 0 of 6 | decidedly active | 2.8 | 91 | 31 | – | – | – | peak ILS values (S180 ascites; S 180 ascites): > 90%; % ILS (S180 ascites; S 180 ascites, 5 mg/kg): 2%; Survivors (S180 ascites; S 180 ascites, 5 mg/kg): 0 of 6; active dose range (S180 ascites; S 180 ascites, decidedly active within the range): 20 to 40 mg/kg
CC(=O)c1ccc[n+]([Au-]([Cl])([Cl])[Cl])c1 [Example 3, trichloro(3-acetylpyridine)gold(III)] | -5 | 0 of 6 | 42 | 1 of 6 | 97 | 5 of 6 | 66 | 4 of 6 | 23 | 0 of 6 | – | 4.5 | 97 | 31 | -90 | 0 of 6 | – | peak ILS values (S180 ascites; S 180 ascites): > 90%
[Cl][Au]([Cl])[Cl].c1ccncc1 [Example 7, trichloro(pyridine)gold(III)] | 45 | 3 of 6 | 71 | 2 of 6 | 66 | 3 of 6 | -6 | 2 of 6 | -94 | 0 of 6 | – | – | – | 35 | -94 | 0 of 6 | – | Maximum % ILS (Dosage) (Sarcoma 180 tumors [1]; 20 mg/kg): 71%
O=C(O)c1ccc[n+]([Au-]([Cl])([Cl])[Cl])c1 [Example 1, Trichloro(Nicotinic Acid)Gold(III)] | -3 | 0 of 6 | 60 | 3 of 6 | 91 | 3 of 6 | 98 | 4 of 6 | 1 | 0 of 6 | – | 5.8 | – | 31 | -69 | 0 of 6 | 12.8 | peak ILS values (S180 ascites; S 180 ascites): > 90%; Maximum % ILS (Dosage) (Sarcoma 180 tumors [1]; 80 mg/kg): 98%
Cn1cc[n+]([Au-]([Br])([Br])[Br])c1 [Example 9, Tribromo(N-Methylimidazole)Gold(III)] | 5 | 0 of 6 | 76 | 4 of 6 | 66 | 3 of 6 | -1 | 1 of 6 | -94 | 0 of 6 | – | 2.0 | – | 42 | -94 | 0 of 6 | – | Maximum % ILS (Dosage) (Sarcoma 180 tumors [1]; 20 mg/kg): 76%
O=C(O)Cc1ccc[n+]([Au-]([Cl])([Cl])[Cl])c1 [Example 4, trichloro(3-pyridyacetic acid)gold(III)] | 6 | 0 of 6 | -15 | 0 of 6 | 63 | 1 of 6 | 57 | 1 of 6 | -41 | 0 of 6 | pronounced antitumor effect | 1.8 | 63 | 84 | -90 | 0 of 6 | 12.8 | –
O=C(O)c1ccc[n+]([Au-]([Br])([Br])[Br])c1 [Example 10] | -23 | 0 of 6 | 26 | 0 of 6 | 64 | 2 of 6 | 49 | 0 of 6 | -19 | 0 of 6 | – | – | – | – | -95 | 0 of 6 | 12.8 | –
O=C(O)Cc1ccc[n+]([Au-]([Br])([Br])[Br])c1 [Example 11, tribromo(3-pyridylacetic acid)gold(III)] | -16 | 0 of 6 | 20 | 0 of 6 | 10 | 0 of 6 | 31 | 1 of 6 | -21 | 0 of 6 | considered to be inactive | – | – | – | -92 | 0 of 6 | 12.8 | Anti-tumor activity (in words) (S180 ascites; S 180 ascites, listed as tribromo(3-pyridylacetic acid)gold(III)): inactive as an anti-tumor agent; % ILS against criterion for anti-tumor activity (S180 ascites): < 50%
cis-[Pt(NH3)2 Cl2 ] [Cisplatin, reference compound] | – | – | – | – | – | – | – | – | – | – | – | – | – | – | – | – | – | Positive Control Survivors (S180 ascites; S 180 ascites, Cisplatin in saline, 8 mg/kg, one value per test series, listed as Positive Control): 0 of 6 and 4 of 6 and 6 of 6 and 1 of 6; Therapeutic index attributed to commercially available Cisplatin (Sarcoma 180 tumors [2]): 2.2-2.5
Oc1ccc[n+]([Au-]([Cl])([Cl])[Cl])c1 [Example 5] | 9 | 0 of 6 | 39 | 2 of 6 | 61 | 3 of 6 | 30 | 2 of 6 | -36 | 0 of 6 | – | – | 61 | 87 | -85 | 0 of 6 | – | –
[Cl][Au-]([Cl])([Cl])[n+]1cc[nH]c1 [Example 8, trichloro(imidazole)gold(III)] | -7 | 0 of 6 | 1 | 1 of 6 | -16 | 0 of 6 | 37 | 1 of 6 | 37 | 2 of 6 | considered to be inactive | – | – | – | – | – | – | % ILS (S180 ascites; S 180 ascites, 5 mg/kg): 5%; Survivors (S180 ascites; S 180 ascites, 5 mg/kg): 0 of 6; Anti-tumor activity (in words) (S180 ascites; S 180 ascites, listed as trichloro(imidazole)gold(III)): inactive in bringing about a regression of S 180 ascites at all doses tested; % ILS against criterion for anti-tumor activity (S180 ascites): < 50%
OCc1ccc[n+]([Au-]([Cl])([Cl])[Cl])c1 [Example 6] | 6 | 0 of 6 | 63 | 1 of 6 | 85 | 3 of 6 | 46 | 0 of 6 | -70 | 0 of 6 | – | 2.1 | 85 | 43 | -93 | 0 of 6 | – | –
